Source: paper PMC9012132 (Journal of medicinal chemistry, 2021)
Entries after “also recorded” stand apart in the source; their conditions may differ. Blank lines part the entries; values can stand above or below the molecule they belong to.

Columns and labels:
Stratifin (Sfn) = experiment: RT-qPCR of BPTF regulated genes in Eph4 cells, Sfn; details: 5 μM, 24 h, relative to DMSO
4T1 breast cancer cells [1] = experiment: Combination treatment with doxorubicin in 4T1 cells; details: combination with 50 nM doxorubicin, 4 days
PCAF = target: T1, PCAF (Homo sapiens, UniProt Q92831); details: previously reported; cited from earlier work
T1 sequence (Q92831 723-827 limits assumed): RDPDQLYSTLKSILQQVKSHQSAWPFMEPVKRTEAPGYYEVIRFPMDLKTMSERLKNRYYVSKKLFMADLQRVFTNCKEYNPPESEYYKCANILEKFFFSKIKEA

BRD9 = target: T2, BRD9 (Homo sapiens, UniProt Q9H8M2); details: previously reported; cited from earlier work
T2 sequence (Q9H8M2 136-240 limits assumed): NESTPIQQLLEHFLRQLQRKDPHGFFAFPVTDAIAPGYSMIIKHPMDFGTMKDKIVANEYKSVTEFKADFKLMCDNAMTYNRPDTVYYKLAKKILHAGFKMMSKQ

BPTF bromodomain = BPTF bromodomain (Homo sapiens, UniProt Q12830); type: binding; details: AlphaScreen
4T1 breast cancer cells [2] = experiment: Inhibitor toxicity study in 4T1 cells; type: cell-based, mouse
[3] = system: BPTF knockdown (KD) 4T1 cells; experiment: Inhibitors with doxorubicin in shRNA-mediated BPTF knockdown 4T1 cells; type: cell-based, mouse; details: inhibitor and doxorubicin, control for off-target effects
5FW-PCAF = target: T3, 5FW-PCAF (Homo sapiens, UniProt Q92831); experiment: Protein-observed fluorine; type: binding; details: qualitative
T3 sequence (Q92831 723-827): T1 sequence (Q92831 723-827 limits assumed)

5FW-CECR2 = 5FW-CECR2 (Homo sapiens, UniProt Q9BXF3); experiment: Protein-observed fluorine; type: binding; details: qualitative
Chain of 5FW-CECR2 (Q9BXF3 434-538): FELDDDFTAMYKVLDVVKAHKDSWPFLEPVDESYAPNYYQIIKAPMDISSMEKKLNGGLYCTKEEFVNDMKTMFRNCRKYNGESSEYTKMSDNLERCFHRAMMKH

5FW-BRD4(1) = 5FW-BRD4(1) (Homo sapiens, UniProt O60885); experiment: Protein-observed fluorine; type: binding; details: qualitative
CECR2 = details: cited from earlier work
BRD4(1) = BRD4(1) (Homo sapiens, UniProt O60885); experiment: AlphaScreen competitive inhibition assay, BRD4; type: binding

Structure (SMILES): CN(C)CCc1ccc(Nc2cnn(C)c(=O)c2Cl)cc1 [Compound 19, 4-chloro-5-((4-(2-(dimethylamino)ethyl)phenyl)amino)-2-methylpyridazin-3(2H)-one]
effect on Sfn mRNA level (Stratifin (Sfn)): statistically significant increase
sensitization of 4T1 cells to doxorubicin (4T1 breast cancer cells [1]): sensitized; also recorded: synergize

Structure (SMILES): Cn1ncc(Nc2ccccc2)c(Cl)c1=O [Compound 6, 4-chloro-2-methyl-5-(phenylamino)pyridazin-3(2H)-one]
affinity for PCAF (PCAF): 10 µM
affinity for BRD9 (BRD9): 2.5 µM

Structure (SMILES): CN(C)CCc1ccc(Nc2c(Cl)cnn(C)c2=O)cc1 [Compound 20, 5-chloro-4-((4-(2-(dimethylamino)ethyl)phenyl)amino)-2-methylpyridazin-3(2H)-one]
fold weaker affinity than 18 (BPTF bromodomain): 140 fold
effect on Sfn mRNA level (Stratifin (Sfn)): not significantly affected

Structure (SMILES): COC(=O)c1cccc(NC(=O)NC2CCN(c3ccnc(Nc4ccc(F)cc4)n3)C2)c1 (stereo not shown) [AU1, reference compound]
concentration above which sharp toxicity profile starts (4T1 breast cancer cells [2]): above 16 μM
further toxicity in BPTF knockdown cells [3]: Additional toxicity
effect on Sfn mRNA level (Stratifin (Sfn)): upregulated Sfn but did not reach a high enough level of statistical significance
sensitization of 4T1 cells to doxorubicin (4T1 breast cancer cells [1]): synergize

Structure (SMILES): Cn1ncc(Nc2ccc(CCN)cc2)c(Cl)c1=O [Compound 18, 5-((4-(2-aminoethyl)phenyl)amino)-4-chloro-2-methylpyridazin-3(2H)-one]
PrOF NMR chemical exchange regime with PCAF (5FW-PCAF): slow exchange regime
PrOF NMR chemical exchange regime with CECR2 (5FW-CECR2): intermediate chemical exchange
PrOF NMR chemical exchange regime with BRD4(1) (5FW-BRD4(1)): fast-intermediate exchange
sensitization of 4T1 cells to doxorubicin (4T1 breast cancer cells [1]; listed as BZ1): sensitized

Structure (SMILES): CN(C)CCCOc1ccc(-c2cc(NCCCn3cccn3)nc(S(C)(=O)=O)n2)cc1 [TP-238]
fold higher affinity for CECR2 over BPTF (CECR2): 12 fold

IC50 (BRD4(1)): > 250 µM
Structure (SMILES): CC(C)n1ncc(Nc2ccc(CN)cc2)c(Cl)c1=O [Compound 25, 5-((4-(aminomethyl)phenyl)amino)-4-chloro-2-isopropylpyridazin-3(2H)-one]
